Measurements as given in patent US20240376097A1, “BCL-2 Inhibitor” (BeiGene Ltd., priority 2020, published 2024).

Tests used:
[1] = biological target: recombinant human Bcl-2-G101V protein (Homo sapiens (Human), UniProt P10415, G101V); assay: Bcl-2-G101V TR-FRET Assay; assay type: binding; details: Bcl-2 G101V mutant, TR-FRET; read-out: Biochemical assay (IC50, nM) Bcl-2 G101V
Procedure, shortened: (§1)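 Percent inhibition of the Bcl-2-G101V–ligand interaction was computed from the 490 nm to 520 nm emission ratio after 337 nm excitation, over increasing compound concentrations; a four-parameter logistic fit gave IC50.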

[2] = test system: recombinant human Bcl-2-G101V protein; assay: Bcl-2-G101V TR-FRET Assay; assay type: binding; details: for ratio of IC50 of Bcl-2 G101V/Bcl-2 wt, compared with Example F132b in WO2019210828 and ABT-199 (venetoclax): comparison in words; for Ratio of Bcl-2 G101V/WT: ratio of biochemical IC50 Bcl-2 G101V / Bcl-2 WT
Procedure, shortened: as §1

[3] = test system: RS4;11 (BCL-2 dependent acute lymphoblastic leukemia cell line); assay: RS4;11 Cell Proliferation Assay; assay type: cell-based; details: Homo sapiens, RS4;11 cells, read-out: Cellular proliferation assay (IC50, nM) RS4
Procedure, shortened: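 Viability measured via CellTiter-Glo luminescence after a 48 h, 37 °C exposure to compounds (10 points, highest 1 μM). Seeding was 50,000 RS4;11 cells per well in 10% FBS RPMI-1640; IC50 given as mean.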

[4] = test system: BCL-2 G101V knock-in cell line H96 (derive from RS4;11); assay: Bcl 2-G101V Knock-In RS4;11 Cell Proliferation Assay; assay type: cell-based; details: Homo sapiens, RS4-11, 48 h, RS4;11 Bcl-2 G101V knock-in clone H96, 48 hrs, CellTiter-GLO, read-out: Cellular proliferation assay (IC50, nM) RS4
Procedure, shortened: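 CellTiter-Glo luminescence after 48 h, 37 °C compound treatment (10 concentrations, maximum 1 μM or 10 μM) gave mean IC50 values. Cells were 50,000 per well of H96, a BCL2-G101V knock-in single clone derived from RS4;11 by Cas9 editing.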

[5] = Metabolic Stability Study, liver microsome incubation (mouse); assay type: in vitro ADME; details: mouse liver microsomes 0.5 mg/mL, 1 μM compound, NADPH; for half-life at 1 μM: NA^# = very stable, beyond the detection limits, read-out: T1/2 (min) mouse; for microsomal CLint at 1 μM: read-out: CLint (μL × min^−1 × mg^−1) mouse
Procedure, shortened: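 Test compounds (1 μM) incubated at 37° C with 0.5 mg/mL liver microsomes plus NADPH regenerating system; samples quenched at 0, 30 and 60 min. Parent loss measured by LC-MS/MS, giving CLint and T1/2, with CLint normalised to microsomal protein concentration.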

Structure (SMILES) | IC50 [1] [nM] | ratio of IC50 of Bcl-2 G101V/Bcl-2 wt, compared with Example F132b in WO2019210828 and ABT-199 (venetoclax) [2] | Ratio of Bcl-2 G101V/WT [2] | IC50 [3] [nM] | IC50 [4] [nM] | half-life at 1 μM [5] [min] | microsomal CLint at 1 μM [5] [µL/min/mg]
COc1cc(CN2CCN(C3CC4(C3)CN(c3ccc(C(=O)NS(=O)(=O)c5ccc(NC[C@H]6CC[C@](C)(O)CC6)c([N+](=O)[O-])c5)c(Oc5cnc6[nH]cc(F)c6c5)c3)C4)[C@H](c3ccccc3C(C)C)C2)cc2cc(C)oc12 [Example 338, 2-((3-fluoro-1H-pyrrolo[2,3-b]pyridin-5-yl)oxy)-N-((4-((((1r,4r)-4-hydroxy-4-methylcyclohexyl)methyl)amino)-3-nitrophenyl)sulfonyl)-4-(6-((R)-2-(2-isopropylphenyl)-4-((7-methoxy-2-methylbenzofuran-5-yl)methyl)piperazin-1-yl)-2-azaspiro[3.3]heptan-2-yl)benzamide] | 1.4 | much lower | 2.3 | 0.11 | 0.15 | 538 | 2.6
COc1cc(CN2CCN(C3CC4(C3)CN(c3ccc(C(=O)NS(=O)(=O)c5ccc(NC[C@H]6CC[C@](C)(O)CC6)c([N+](=O)[O-])c5)c(Oc5cnc6[nH]cc(F)c6c5)c3)C4)[C@H](c3ccccc3C(C)C)C2)cc2c1OCCC2 [Example 312, 2-((3-fluoro-1H-pyrrolo[2,3-b]pyridin-5-yl)oxy)-N-((4-((((1r,4r)-4-hydroxy-4-methylcyclohexyl)methyl)amino)-3-nitrophenyl)sulfonyl)-4-(6-((R)-2-(2-isopropylphenyl)-4-((8-methoxychroman-6-yl)methyl)piperazin-1-yl)-2-azaspiro[3.3]heptan-2-yl)benzamide] | 0.27 |  | 2.9 | 0.27 | 0.3 | 362 | 3.8
COc1cc(CN2CCN(C3CC4(C3)CN(c3ccc(C(=O)NS(=O)(=O)c5ccc(NC[C@H]6CC[C@](C)(O)CC6)c([N+](=O)[O-])c5)c(Oc5cnc6[nH]cc(F)c6c5)c3)C4)[C@H](c3ccccc3C(C)C)C2)ccc1N1CCOCC1 [Example 361, 2-((3-fluoro-1H-pyrrolo[2,3-b]pyridin-5-yl)oxy)-N-((4-((((1r,4r)-4-hydroxy-4-methylcyclohexyl)methyl)amino)-3-nitrophenyl)sulfonyl)-4-(6-((R)-2-(2-isopropylphenyl)-4-(3-methoxy-4-morpholinobenzyl)piperazin-1-yl)-2-azaspiro[3.3]heptan-2-yl) benzamide] | 0.16 |  | 3.1 | 0.09 | 0.13 | 273 | 5.1
COc1ccc(CN2CCN(C3CC4(C3)CN(c3ccc(C(=O)NS(=O)(=O)c5ccc(NC[C@H]6CC[C@](C)(O)CC6)c([N+](=O)[O-])c5)c(Oc5cnc6[nH]ccc6c5)c3)C4)[C@H](c3ccccc3C(C)C)C2)cc1 [Example 147, 2-((1H-pyrrolo[2,3-b]pyridin-5-yl)oxy)-N-((4-((((1r,4r)-4-hydroxy-4-methylcyclohexyl)methyl)amino)-3-nitrophenyl)sulfonyl)-4-(6-((R)-2-(2-isopropylphenyl)-4-(4-methoxybenzyl)piperazin-1-yl)-2-azaspiro[3.3]heptan-2-yl) benzamide] | 0.17 |  | 3.1 | 0.14 | 0.588 | 301 | 4.6
CC(C)c1ccccc1C1CN(Cc2ccc(C(F)(F)F)cc2)CCN1C1CC2(CCN(c3ccc(C(=O)NS(=O)(=O)c4ccc(NC[C@H]5CC[C@](C)(O)CC5)c([N+](=O)[O-])c4)c(Oc4cnc5[nH]ccc5c4)c3)CC2)C1 (some centres unmarked) [Example 41, 2-((1H-pyrrolo[2,3-b]pyridin-5-yl)oxy)-N-((4-((((1r,4r)-4-hydroxy-4-methylcyclohexyl)methyl)amino)-3-nitrophenyl)sulfonyl)-4-(2-(2-(2-isopropylphenyl)-4-(4-(trifluoromethyl)benzyl)piperazin-1-yl)-7-azaspiro[3.5]nonan-7-yl) benzamide] | 3.8 |  | 4.6 | 0.74 | 7.2 | 683 | 2
CC(C)c1ccccc1C1CN(Cc2cccc(F)c2)CCN1C1CC2(CCN(c3ccc(C(=O)NS(=O)(=O)c4ccc(NC[C@H]5CC[C@](C)(O)CC5)c([N+](=O)[O-])c4)c(Oc4cnc5[nH]ccc5c4)c3)CC2)C1 (some centres unmarked) [Example 43, 2-((1H-pyrrolo[2,3-b]pyridin-5-yl)oxy)-4-(2-(4-(3-fluorobenzyl)-2-(2-isopropylphenyl)piperazin-1-yl)-7-azaspiro[3.5]nonan-7-yl)-N-((4-((((1r,4r)-4-hydroxy-4-methylcyclohexyl)methyl)amino)-3-nitrophenyl)sulfonyl)benzamide] | 1.3 |  | 4.2 | 0.48 | 3.27 | 193 | 7.1
COc1cc(CN2CCN(C3CC4(CCN(c5ccc(C(=O)NS(=O)(=O)c6ccc(NC[C@H]7CC[C@](C)(O)CC7)c([N+](=O)[O-])c6)c(Oc6cnc7[nH]cc(F)c7c6)c5)CC4)C3)[C@H](c3ccccc3C(C)C)C2)cc2c1OCC2(C)C [Example 285, 2-((3-fluoro-1H-pyrrolo[2,3-b]pyridin-5-yl)oxy)-N-((4-((((1r,4r)-4-hydroxy-4-methylcyclohexyl)methyl)amino)-3-nitrophenyl)sulfonyl)-4-(2-((R)-2-(2-isopropylphenyl)-4-((7-methoxy-3,3-dimethyl-2,3-dihydrobenzofuran-5-yl)methyl)piperazin-1-yl)-7-azaspiro [3.5]nonan-7-yl)benzamide] | 0.87 |  | 3.4 | 0.18 | 0.41 | 177 | 7.8
CC(C)c1ccccc1[C@@H]1CN(Cc2cccc3c2OCCO3)CCN1C1CC2(CCN(c3ccc(C(=O)NS(=O)(=O)c4ccc(NC[C@H]5CC[C@](C)(O)CC5)c([N+](=O)[O-])c4)c(Oc4cnc5[nH]ccc5c4)c3)CC2)C1 [Example 79a, 2-((1H-pyrrolo[2,3-b]pyridin-5-yl)oxy)-4-(2-(R-4-((2,3-dihydrobenzo [b][1,4]dioxin-5-yl)methyl)-2-(2-isopropylphenyl)piperazin-1-yl)-7-azaspiro[3.5]nonan-7-yl)-N-((4-((((1r,4r)-4-hydroxy-4-methylcyclohexyl)methyl)amino)-3-nitrophenyl)sulfonyl)benzamide] | 0.25 |  | 2.4 | 0.104 | 0.48 | 124 | 11.2
COc1cc(CN2CCN(C3CC4(C3)CN(c3ccc(C(=O)NS(=O)(=O)c5ccc(NC[C@H]6CC[C@](C)(O)CC6)c([N+](=O)[O-])c5)c(Oc5cnc6[nH]cc(F)c6c5)c3)C4)[C@H](c3ccccc3C(C)C)C2)ccc1C1CC1 [Example 232, 4-(6-((R)-4-(4-cyclopropyl-3-methoxybenzyl)-2-(2-isopropylphenyl)piperazin-1-yl)-2-azaspiro[3.3]heptan-2-yl)-2-((3-fluoro-1H-pyrrolo[2,3-b]pyridin-5-yl)oxy)-N-((4-((((1r,4r)-4-hydroxy-4-methylcyclohexyl)methyl)amino)-3-nitrophenyl)sulfonyl)benzamide] | 1.3 | much lower | 1.8 | 0.13 | 0.19 | 206 | 6.7
